The text below walks through data of US11584763B2, “Chromenopyridine derivatives as phosphatidylinositol phosphate kinase inhibitors” (HIBERCELL, INC., priority 2017, dated 2023).

Where only a bound is given, the exact number is not on record here.

Assay type in all cases: biochemical
The target in test [1] is T1, PIP4K 2A (Homo sapiens, UniProt P48426).
T1 sequence (P48426 1-406): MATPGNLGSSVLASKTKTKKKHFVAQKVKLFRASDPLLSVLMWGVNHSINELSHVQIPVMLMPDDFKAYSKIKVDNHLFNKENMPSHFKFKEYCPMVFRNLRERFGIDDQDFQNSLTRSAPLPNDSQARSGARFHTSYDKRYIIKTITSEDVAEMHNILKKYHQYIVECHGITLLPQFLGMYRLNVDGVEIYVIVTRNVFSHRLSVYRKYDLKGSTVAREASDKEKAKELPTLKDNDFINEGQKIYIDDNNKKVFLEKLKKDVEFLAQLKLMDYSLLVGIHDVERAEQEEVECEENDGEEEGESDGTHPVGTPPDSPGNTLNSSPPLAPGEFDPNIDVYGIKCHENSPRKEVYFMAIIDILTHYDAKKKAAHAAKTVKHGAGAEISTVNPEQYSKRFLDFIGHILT
In words: ADP-glo kinase assay PIP4K 2A. The conditions noted are these: compounds listed under IC50 bin headings. On the set-up: 4 nM PIP4K2A (full length protein, SignalChem); purchased SignalChem. Put shortly: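 Full-length PIP4K2A was pre-incubated 15 min at RT with compound in 20 mM MOPS pH 7.2, 25 mM MgCl2, 0.005% Tween 20. The enzyme mix held 4 nM kinase and 100 μM PI(5)P diC8, and ATP was added from a 60 μM solution. After 1 h at RT, ADP-Glo luminescence gave % inhibition versus DMSO, fitted to IC50 over 10 threefold dilutions.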

The target in test [2] is T1, PIP4K 2A. The experiment in a line: Kinase Assay PIP4K2 A (PIP4KtypeIIA inhibition assay). On the set-up: made in house; host or cells: E. coli. The following applies: compounds listed under IC50 bin headings. Put shortly: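 GST-tagged enzyme from E. coli at 0.5 nM final was preincubated with compound for 1 h at 27 C, then reacted with 10 uM ATP, 80 uM PI5P and DOPE carrier in 50 mM HEPES pH 7.3, 5% DMSO. After 1 h, ADP was measured by ADP-Glo luminescence against a calibration curve. IC50 was fitted from % residual activity.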

Another test deals with T2, PIP4K2B (Homo sapiens, UniProt P78356).
T2 construct: made in house; host or cells: E. coli
T2 sequence (P78356 1-416): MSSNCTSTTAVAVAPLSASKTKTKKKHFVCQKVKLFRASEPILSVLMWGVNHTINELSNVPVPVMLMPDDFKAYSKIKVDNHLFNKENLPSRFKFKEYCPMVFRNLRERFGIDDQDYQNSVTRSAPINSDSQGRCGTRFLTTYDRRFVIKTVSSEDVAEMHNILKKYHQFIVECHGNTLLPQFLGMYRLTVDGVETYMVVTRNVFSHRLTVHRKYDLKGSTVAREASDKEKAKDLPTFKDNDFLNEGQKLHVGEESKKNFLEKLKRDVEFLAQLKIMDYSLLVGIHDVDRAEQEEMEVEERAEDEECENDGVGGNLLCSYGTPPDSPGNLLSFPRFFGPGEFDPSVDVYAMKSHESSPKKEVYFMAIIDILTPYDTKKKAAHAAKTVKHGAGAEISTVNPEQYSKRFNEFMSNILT
In words: Trans-FI P kinase assay PIP4K2B (PIP4KtypeIIB inhibition assay). The following applies: compounds listed under IC50 bin headings; 100 uM GTP; read-out: Trans-FI P kinase assays: PIP4K2B IC50. Put shortly:
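GST-tagged human PIP4K2B (5 nM, E. coli-expressed) preincubated 1 h at 27 C with compound (top 4.8 uM, 5% DMSO), then reacted 2 h with 100 uM GTP and 80 uM PI5P/DOPE vesicles in HEPES pH 7.3, MgCl2, Triton X-100. GDP detected by Transcreener FI fluorescence via calibration curve; IC50 from % activity vs log[inhibitor].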

As to `CC1Oc2cc(N3CCCC3=O)ccc2-c2cnc(Nc3cncc(S(C)(=O)=O)c3)cc21` (stereo not drawn) [Example 91, 1-(5-methyl-3-((5-(methylsulfonyl)pyridin-3-yl)amino)-5H-chromeno[4,3-c]pyridin-8-yl)pyrrolidin-2-one], the IC50 is 10 to 100 nM on PIP4K 2A [1], 10 to 100 nM at PIP4K 2A [2] and more than 1000 nM at PIP4K2B.

For the compound `CC1Oc2cc(N3CCCC3=O)ccc2-c2cnc(Nc3cnc4nccnc4c3)cc21` (stereo not drawn) [Example 63, 1-(5-methyl-3-(pyrido[2,3-b]pyrazin-7-ylamino)-5H-chromeno[4,3-c]pyridin-8-yl)pyrrolidin-2-one], the IC50 against PIP4K 2A [1] was in the range of 1 to 10 nM; against PIP4K 2A [2], 1 to 10 nM; at PIP4K2B, 100 to 1000 nM.

As for `CC1Oc2cc(N3CCCC3=O)ccc2-c2cnc(Nc3cnc4ccn(S(C)(=O)=O)c4c3)cc21` (stereo not drawn) [Example 57, 1-(5-methyl-3-((1-(methylsulfonyl)-1H-pyrrolo[3,2-b]pyridin-6-yl)amino)-5H-chromeno[4,3-c]pyridin-8-yl)pyrrolidin-2-one], the figures for the IC50 against PIP4K 2A [1], against PIP4K 2A [2] and at PIP4K2B were 1 to 10 nM, not above 1 nM and 10 to 100 nM, respectively.

On to `O=C1CCCN1c1ccc2c(c1)OCc1cc(Nc3cnc4c(c3)N(C(=O)C3CC3)CCO4)ncc1-2` [Example 76, 1-(3-((1-(cyclopropanecarbonyl)-2,3-dihydro-1H-pyrido[2,3-b][1,4]oxazin-7-yl)amino)-5H-chromeno[4,3-c]pyridin-8-yl)pyrrolidin-2-one], for which the results for the IC50 at PIP4K 2A [1], against PIP4K 2A [2] and on PIP4K2B were not above 1 nM, not above 1 nM and 1 to 10 nM, respectively.

As for `CC1Oc2cc(N3CCCC3=O)ccc2-c2cnc(Nc3cnc4c(c3)NC(=O)CO4)cc21` (stereo not drawn) [Example 93, 7-((5-methyl-8-(2-oxopyrrolidin-1-yl)-5H-chromeno[4,3-c]pyridin-3-yl)amino)-1H-pyrido[2,3-b][1,4]oxazin-2(3H)-one], the 50% inhibitory concentration (IC50) on PIP4K 2A [1] lay in the range of 10 to 100 nM; at PIP4K 2A [2], 1 to 10 nM; on PIP4K2B, 100 to 1000 nM.

Turning to `CC1c2cc(Nc3cccnc3)ncc2-c2ccc(N3CCCC3=O)cc2N1C` (stereo not drawn) [Example 43, 1-(5,6-dimethyl-3-(pyridin-3-ylamino)-5,6-dihydrobenzo[c][2,6]naphthyridin-8-yl)pyrrolidin-2-one], the results for the IC50 against PIP4K 2A [1], at PIP4K 2A [2] and on PIP4K2B were 10 to 100 nM, 10 to 100 nM and more than 1000 nM, respectively.

Regarding `O=C1CCCN1c1ccc2c(c1)OCc1cc(Nc3cnc4c(c3)N3C(=O)CC[C@H]3CO4)ncc1-2` [Example 75, (S)-2-((8-(2-oxopyrrolidin-1-yl)-5H-chromeno[4,3-c]pyridin-3-yl)amino)-6,6a,7,8-tetrahydro-9H-pyrido[2,3-b]pyrrolo[1,2-d][1,4]oxazin-9-one], the IC50 at PIP4K 2A [1] is not above 1 nM; on PIP4K 2A [2] it was not above 1 nM; on PIP4K2B it was 1 to 10 nM.

Regarding `CC1Oc2cc(N3CCCC3=O)ccc2-c2cnc(Nc3cncc(F)c3)cc21` (stereo not drawn) [Example 50, 1-(3-((5-fluoropyridin-3-yl)amino)-5-methyl-5H-chromeno[4,3-c]pyridin-8-yl)pyrrolidin-2-one], the IC50 at PIP4K 2A [1] was 10 to 100 nM; against PIP4K 2A [2] it was 1 to 10 nM; at PIP4K2B, more than 1000 nM.

On to `CC(C)C(=O)N1CCOc2ncc(Nc3cc4c(cn3)-c3ccc(N5CCCC5=O)cc3OC4C)cc21` (stereo not drawn) [Example 84, 1-(3-((1-isobutyryl-2,3-dihydro-1H-pyrido[2,3-b][1,4]oxazin-7-yl)amino)-5-methyl-5H-chromeno[4,3-c]pyridin-8-yl)pyrrolidin-2-one], for which the IC50 against PIP4K 2A [1] is not above 1 nM; against PIP4K 2A [2] it was not above 1 nM; at PIP4K2B, 1 to 10 nM.

Turning to `CC1Oc2cc(N3CCCC3=O)ccc2-c2cnc(Nc3cnc4c(c3)N(S(=O)(=O)C3CC3)CCO4)cc21` (stereo not drawn) [Example 52, 1-(3-((1-(cyclopropylsulfonyl)-2,3-dihydro-1H-pyrido[2,3-b][1,4]oxazin-7-yl)amino)-5-methyl-5H-chromeno[4,3-c]pyridin-8-yl)pyrrolidin-2-one], the IC50 at PIP4K 2A [1] was 1 to 10 nM; against PIP4K 2A [2], not above 1 nM; at PIP4K2B, 100 to 1000 nM.

With `CC1Oc2cc(N3CCCC3=O)ccc2-c2cnc(Nc3cnc4c(c3)OCCO4)cc21` (stereo not drawn) [Example 62, 1-(3-((2,3-dihydro-[1,4]dioxino[2,3-b]pyridin-7-yl)amino)-5-methyl-5H-chromeno[4,3-c]pyridin-8-yl)pyrrolidin-2-one], the IC50 against PIP4K 2A [1] was 1 to 10 nM; on PIP4K 2A [2], not above 1 nM; on PIP4K2B, 10 to 100 nM.

In the case of `O=C1CCCN1c1ccc2c(c1)OC1(COC1)c1cc(Nc3cnc4c(c3)N3C(=O)CC[C@H]3CO4)ncc1-2` [Example 194, (S)-2-((8-(2-oxopyrrolidin-1-yl)spiro[chromeno[4,3-c]pyridine-5,3′-oxetan]-3-yl)amino)-6,6a,7,8-tetrahydro-9H-pyrido[2,3-b]pyrrolo[1,2-d][1,4]oxazin-9-one], the concentration for half-maximal inhibition (IC50) against PIP4K 2A [1] is not above 1 nM; against PIP4K 2A [2] it was 1 to 10 nM; on PIP4K2B, 1 to 10 nM.
